According to article PMC3298755 (Nature Chemical Biology, 2011):
Like-named read-outs stand apart in the source and are kept apart here.

What was measured:
stimulated DRGs = assay: Substrate levels; type: cell-based, mouse
COX-2 in stimulated DRGs [1] = type: cell-based, mouse
FAAH = details: read-out: IC50, FAAH inhibition; in vitro; ref [29]; cited from earlier work
COX-2 in stimulated DRGs [2] = type: cell-based, mouse; details: read-out: IC50 for inhibition of AEA oxidation in DRGs
COX-2 in stimulated DRGs [3] = type: cell-based, mouse; details: read-out: IC50 for inhibition of 2-AG oxidation in DRGs
mCOX-2 = molecular target: T1, mCOX-2 (Mus musculus, UniProt Q05769); assay: Inhibition of COX-2 oxygenation of AA, PG formation by LC-MS-MS; type: biochemical
T1 sequence (Q05769 18-604): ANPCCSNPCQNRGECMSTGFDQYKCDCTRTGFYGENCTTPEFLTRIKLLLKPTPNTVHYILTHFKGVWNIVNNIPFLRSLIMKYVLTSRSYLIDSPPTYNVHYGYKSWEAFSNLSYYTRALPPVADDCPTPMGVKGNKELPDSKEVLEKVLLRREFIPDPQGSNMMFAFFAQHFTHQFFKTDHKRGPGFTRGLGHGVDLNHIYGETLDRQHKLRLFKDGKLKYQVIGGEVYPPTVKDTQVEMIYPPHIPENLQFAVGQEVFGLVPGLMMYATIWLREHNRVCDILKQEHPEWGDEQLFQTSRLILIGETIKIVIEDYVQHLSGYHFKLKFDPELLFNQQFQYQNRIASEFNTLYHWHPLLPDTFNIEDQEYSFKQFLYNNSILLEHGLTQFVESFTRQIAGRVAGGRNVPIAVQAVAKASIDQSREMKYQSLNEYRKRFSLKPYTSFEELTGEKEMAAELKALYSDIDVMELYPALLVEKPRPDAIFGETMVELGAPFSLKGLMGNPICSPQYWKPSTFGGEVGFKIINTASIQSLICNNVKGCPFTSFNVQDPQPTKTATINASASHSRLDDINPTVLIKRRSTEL

Structure (SMILES) | Amount of 2-AG in cell extracts (stimulated DRGs) | Amount of AA in cell extracts (stimulated DRGs) | Amount of AEA in cell extracts (stimulated DRGs) | Inhibition of the synthesis of PGs in DRGs (COX-2 in stimulated DRGs [1]) | IC50 (FAAH) [µM] | IC50 (COX-2 in stimulated DRGs [2]) [µM] | IC50 (COX-2 in stimulated DRGs [3]) [µM] | Inhibition of the synthesis of PGs in DRGs (COX-2 in stimulated DRGs [1]; stimulated DRGs, at concentrations that inhibited PG-G and PG-EA synthesis) | Inhibition of AA oxidation by COX-2 (mCOX-2; at either 5 or 50 μM substrate concentrations) | IC50, inhibition of COX-2 oxygenation of AA (result in words) (mCOX-2; 50 μM AA, 15 min pre-incubation, 30 s reaction, LC-MS-MS)
C[C@@H](C(=O)O)c1ccc(-c2ccccc2)c(F)c1 [(R)-flurbiprofen] | increased | did not increase | increased | did not inhibit | > 1000 | 6 ± 2.7 | 5.8 ± 2.9 |  |  | 
COc1ccc2cc([C@@H](C)C(=O)O)ccc2c1 [(R)-naproxen] | increased | did not increase | increased |  |  |  |  | did not inhibit | did not inhibit | 
CC(C)Cc1ccc([C@@H](C)C(=O)O)cc1 [(R)-ibuprofen] | increased | did not increase | increased |  |  |  |  |  |  | 
Cc1ccc(Nc2c(F)cccc2Cl)c(CC(=O)O)c1 [Lumiracoxib] |  |  |  |  |  |  |  |  |  | no inhib.
